# Reference: US7235299B2, “Beads of a phenolic compound and a method of obtaining same” (Rhodia Chimie, priority 2002, dated 2007)
# Experiments:
# [1] = acrylic acid at 20° C.
# [2] = methyl methacrylate at 20° C.
smiles,measurement,setting,value
"Oc1ccc(O)cc1 [crystalline hydroquinone, hydroquinone]",dissolution time in acrylic acid,[1],10 min
same,dissolution time in methyl methacrylate,[2],3 min
